Results on two compounds are retold here after ChEMBL document CHEMBL6153066, “Discovery of CZY43 as a new small-molecule degrader of pseudokinase HER3” (Eur J Med Chem, 2025).

Usually IC50 stands for the point on the concentration scale where inhibition reaches its midpoint. In general, DC50 refers to the concentration at which degradation of the target reaches its halfway point. Read a high DC50 as degradation only at high concentration.

Experiment [1] relates to SK-BR-3. Nature of the experiment: Antiproliferative activity against human SK-BR-3 cells incubated for 72 hrs by CCK8 assay. Conditions: SK-BR-3, 72 h. It is filed as functional, cell-based. (Formazan colour is commonly taken as a measure of viable cells.)
The target in experiment [2] is T1, Receptor tyrosine-protein kinase erbB-3 (Homo sapiens, UniProt P21860). The experiment can be described thus: Induction of hydrophobic tag-mediated HER3 degradation in human MDA-MB-453 cells upto 2000 nM incubated for 8 hrs by immunoblot analysis. It is filed as cell-based.
Experiment [3] deals with T1, Receptor tyrosine-protein kinase erbB-3. The experiment can be described thus: Induction of hydrophobic tag-mediated HER3 degradation in human SK-BR-3 cells incubated for 8 hrs by immunoblot analysis. It is filed as cell-based. (In western blotting, separated proteins are transferred to a membrane and probed.)
Experiment [4] has the same target. Nature of the experiment: Induction of hydrophobic tag-mediated HER3 degradation in human SK-BR-3 cells assessed as decrease in HER3 level upto 2000 nM incubated for 8 hrs by immunoblot analysis. It is filed as cell-based.
The subject of experiment [5] is SK-BR-3. The experiment can be described thus: Inhibition of cell adhesion in human SK-BR-3 cells upto 2000 nM incubated for 8 hrs by crystal violet staining based analysis. It is filed as functional.
The target of experiment [6] is T1, Receptor tyrosine-protein kinase erbB-3. The experiment can be described thus: Induction of hydrophobic tag-mediated HER3 degradation in human SK-BR-3 cells at 1 uM incubated for 8 hrs in presence of chloroquine by immunoblot analysis. It is filed as cell-based.
Experiment [7] has the same target. The experiment can be described thus: Induction of hydrophobic tag-mediated HER3 degradation in human SK-BR-3 cells at 1 uM incubated for 8 hrs in presence of MG132 by immunoblot analysis. It is filed as cell-based.
Experiment [8] has the same target. Nature of the experiment: Induction of hydrophobic tag-mediated HER3 degradation in human SK-BR-3 cells assessed as decrease in p-AKT level upto 2000 nM incubated for 8 hrs by immunoblot analysis. It is filed as cell-based.
Experiment [9] shares this target. The experiment can be described thus: Induction of Hsp90 binding to HER3 in human SK-BR-3 cells at 1 uM incubated for 8 hrs by Co-IP method. It is filed as cell-based.
Experiment [10] has the same target. Nature of the experiment: Induction of hydrophobic tag-mediated HER3 degradation in human A549 cells upto 2000 nM incubated for 8 hrs by immunoblot analysis. It is filed as cell-based.
For experiment [11] the target is unchanged. The experiment can be described thus: Induction of HER3 ubiquitination in human SK-BR-3 cells at 1 uM incubated for 8 hrs by Co-IP method. It is filed as cell-based.
Experiment [12] relates to SK-BR-3. The experiment can be described thus: Induction of autophagy in human SK-BR-3 cells assessed as increase in LC3B-II level upto 2 uM incubated for 8 hrs by Western blot analysis. It is filed as functional, cell-based.
Experiment [13] addresses T1, Receptor tyrosine-protein kinase erbB-3. The experiment can be described thus: Induction of hydrophobic tag-mediated HER3 degradation in human SK-BR-3 cells at 1000 nM by immunoblot analysis. It is filed as cell-based. The note with it: time <= 24.0 hrs.

Active and inactive are the calls of the source. No cut-off for these calls is given here.

T1 sequence (P21860 whole entry): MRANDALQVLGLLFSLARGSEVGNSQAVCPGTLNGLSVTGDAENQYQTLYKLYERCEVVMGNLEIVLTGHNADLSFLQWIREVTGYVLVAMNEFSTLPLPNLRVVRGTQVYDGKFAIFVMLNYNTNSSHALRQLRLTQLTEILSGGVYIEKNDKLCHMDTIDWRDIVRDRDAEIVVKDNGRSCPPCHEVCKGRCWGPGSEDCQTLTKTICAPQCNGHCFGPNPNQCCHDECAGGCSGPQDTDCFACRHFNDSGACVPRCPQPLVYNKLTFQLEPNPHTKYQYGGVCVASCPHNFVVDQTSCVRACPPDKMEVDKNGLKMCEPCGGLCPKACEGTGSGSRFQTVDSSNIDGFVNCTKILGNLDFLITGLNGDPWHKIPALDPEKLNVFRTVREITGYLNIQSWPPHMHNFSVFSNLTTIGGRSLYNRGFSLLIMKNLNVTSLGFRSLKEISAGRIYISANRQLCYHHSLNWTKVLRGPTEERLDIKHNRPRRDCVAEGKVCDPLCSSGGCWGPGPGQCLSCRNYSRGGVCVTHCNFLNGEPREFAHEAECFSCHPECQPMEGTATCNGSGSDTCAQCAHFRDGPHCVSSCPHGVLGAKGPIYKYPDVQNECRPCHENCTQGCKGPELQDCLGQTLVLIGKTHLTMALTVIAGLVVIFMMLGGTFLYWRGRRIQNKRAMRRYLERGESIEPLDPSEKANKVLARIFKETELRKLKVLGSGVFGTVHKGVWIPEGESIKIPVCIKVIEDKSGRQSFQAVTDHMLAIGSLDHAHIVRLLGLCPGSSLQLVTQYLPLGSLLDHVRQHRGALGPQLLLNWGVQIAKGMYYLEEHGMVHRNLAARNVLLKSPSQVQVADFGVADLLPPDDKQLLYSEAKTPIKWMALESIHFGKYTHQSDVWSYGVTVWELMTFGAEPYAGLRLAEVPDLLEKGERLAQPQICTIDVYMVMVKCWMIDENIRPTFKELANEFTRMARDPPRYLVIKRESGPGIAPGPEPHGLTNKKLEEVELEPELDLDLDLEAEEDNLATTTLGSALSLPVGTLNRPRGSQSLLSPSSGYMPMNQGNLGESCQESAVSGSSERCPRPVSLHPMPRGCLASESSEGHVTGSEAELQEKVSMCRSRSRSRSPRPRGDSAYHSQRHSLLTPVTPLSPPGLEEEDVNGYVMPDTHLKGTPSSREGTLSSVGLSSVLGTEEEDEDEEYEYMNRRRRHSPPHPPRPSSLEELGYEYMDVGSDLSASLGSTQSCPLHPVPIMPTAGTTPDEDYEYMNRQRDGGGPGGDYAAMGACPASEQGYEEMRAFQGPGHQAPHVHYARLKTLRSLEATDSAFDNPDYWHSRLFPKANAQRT

In the experiment with SK-BR-3 [1], `COc1cc(Nc2c(C#N)cnc3cc(OCCCN4CCN(C)CC4)c(OC)cc23)c(Cl)cc1Cl` [BOSUTINIB] gave a 50% inhibitory concentration (IC50) of 5140 nM.

`COc1cc(Nc2c(C#N)cnc3cc(OCCCN4CCC5(CC4)CCN(CCC46C[C@H]7C[C@@H](C4)C[C@@H](C6)C7)CC5)c(OC)cc23)c(Cl)cc1Cl`: the outcome (in experiment [2]; in [7]; in experiment [9]; in experiment [10]; in experiment [11]; with SK-BR-3 [12]) was Active. This compound had a DC50 in [3] of 559 nM. Moreover, the Activity entry was “Dose-dependent-effect” in [3] (dose <= 2000.0 nM), “Active; Exhibited As More Potent Than Bosutinib” in [4], “Active; Exhibited As More Potent Than Bosutinib” in experiment [8] and “Time-dependent-effect” in [13]. Besides, the inhibition result with SK-BR-3 [5] was “Active”. Also, the outcome in [6] was inactive. The IC50 with SK-BR-3 [1] turned out to be 530 nM.
